Reference: patent publication US12371454B2, “Cyclic peptide compound having Kras inhibitory action” (priority 2019, dated 2025)
Starred links: 1 amine or outer side, 2 acyl side, 3 side chain; linkers in the order of their positions; H or OH if unused. Positions of bridges follow the written chain, without caps; N, C: chain ends. Non-standard residues stand in square brackets, D forms with d. Residues, ends and D or L forms follow the SMILES beside them. *: point of attachment. hPhe(3,5-F2-4-CF3) = N[C@@H](CCc1cc(F)c(C(F)(F)F)c(F)c1)C(=O)O; hPhe(3-Cl-4-CF3) = N[C@@H](CCc1ccc(C(F)(F)F)c(Cl)c1)C(=O)O; hPhe(3-F,4-CF3) = N[C@@H](CCc1ccc(C(F)(F)F)c(F)c1)C(=O)O; NMePhe(4-CF3) = CN[C@@H](Cc1ccc(C(F)(F)F)cc1)C(=O)O; Pro(cis-4-Ph) = O=C(O)[C@@H]1C[C@H](c2ccccc2)CN1; 3Oxa8azabicyclo(3.2.1)octane = C1CC2COCC1N2*; NMePhe(4-Me) = CN[C@@H](Cc1ccc(C)cc1)C(=O)O; NMedβ3hAla = C[C@H](CC(=O)[*:2])N(C)[*:1]; NMeNva(5,5-F2) = CN[C@@H](CCC(F)F)C(=O)O; NMeGly(cPent) = CN[C@H](C(=O)O)C1CCCC1; NMeGly(cBu) = CN[C@H](C(=O)O)C1CCC1; NMeCha = CN[C@@H](CC1CCCCC1)C(=O)O; cisHyp = O=C(O)[C@@H]1C[C@H](O)CN1; Hyp = O=C(O)[C@@H]1C[C@@H](O)CN1; NEtLeu = CCN[C@@H](CC(C)C)C(=O)O; NMeCba = CN[C@@H](CC1CCC1)C(=O)O; NMeChg = CN[C@H](C(=O)O)C1CCCCC1; NMeI = CC[C@H](C)[C@H](NC)C(=O)O; NMeT = CN[C@H](C(=O)O)[C@@H](C)O; NMeD = CN[C@@H](CC(=O)O)C(=O)O; NMeL = CN[C@@H](CC(C)C)C(=O)O; NMeV = CN[C@H](C(=O)O)C(C)C; d(β3hA) = C[C@@H](N)CC(=O)O; NMeS = CN[C@@H](CO)C(=O)O; Pip = O=C(O)[C@@H]1CCCCN1; NMeA = CN[C@@H](C)C(=O)O; Piperidide = C1CCN(*)CC1; Pyrrolidide = C1CCN(*)C1; Ac5c = NC1(C(=O)O)CCCC1; Aze = O=C(O)[C@@H]1CCN1; Isopentyl = CC(C)CC*; Sar = CNCC(=O)O

Each molecule was assayed on Human pancreatic cancer cell line AsPC-1 (assay: Measurement of AsPC-1 cell growth inhibition (AsPC-1 CGI)). Conditions: 96 h.
Type: cell-based
Summary of the method: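 AsPC-1 cells in 15% FBS RPMI-1640 were exposed to test compound for 96 hours at 37° C, with CellTiter-Glo as endpoint.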

Row | SMILES | IC50
1 | CC[C@H](C)[C@@H]1NC(=O)[C@H](CC(C)C)N(C)C(=O)C[C@@H](C(=O)N2CCCCC2)N(C)C(=O)[C@H]([C@@H](C)CC)N(C)C(=O)C2(CCCC2)NC(=O)[C@@H]2CCCN2C(=O)[C@H](CCc2ccc(C(F)(F)F)c(F)c2)NC(=O)CN(C)C(=O)[C@H](CC2CCCCC2)N(C)C(=O)[C@@H]2CCN2C(=O)[C@H](C)N(C)C1=O [Compound 409] ([NMeL]I[NMeA][Aze][NMeCha][Sar][hPhe(3-F,4-CF3)]P[Ac5c][NMeI][NMeD]-Piperidide; lactam N-11) | 50 to 100 nM
2 | CC[C@H](C)[C@@H]1NC(=O)[C@H](CC(C)C)N(C)C(=O)C[C@@H](C)NC(=O)[C@H](C(C)C)N(C)C(=O)C2(CCCC2)NC(=O)[C@@H]2CCCN2C(=O)[C@H](CCc2ccc(C(F)(F)F)c(Cl)c2)NC(=O)CN(C)C(=O)[C@H](CC2CCCCC2)N(C)C(=O)[C@@H]2CCN2C(=O)[C@@H]2CCCCN2C1=O [Compound 416] (cyclo([Ac5c][NMeV][d(β3hA)][NMeL]I[Pip][Aze][NMeCha][Sar][hPhe(3-Cl-4-CF3)]P)) | 100 to 500 nM
3 | CC[C@H](C)[C@@H]1NC(=O)[C@H](CC(C)C)N(C)C(=O)C[C@@H](C(=O)N2CCCCC2)N(C)C(=O)[C@H](C2CCCCC2)N(C)C(=O)C2(CCCC2)NC(=O)[C@@H]2C[C@H](c3ccccc3)CN2C(=O)[C@H](CCc2ccc(C(F)(F)F)c(Cl)c2)NC(=O)CN(C)C(=O)[C@H](CC2CCCCC2)N(C)C(=O)CN(C)C(=O)CN(C)C1=O [Compound 428] ([NMeL]I[Sar][Sar][NMeCha][Sar][hPhe(3-Cl-4-CF3)][Pro(cis-4-Ph)][Ac5c][NMeChg][NMeD]-Piperidide; lactam N-11) | 100 to 500 nM
4 | CC[C@H](C)[C@@H]1NC(=O)[C@H](CC(C)C)N(C)C(=O)C[C@@H](C(=O)N2CCCCC2)N(C)C(=O)[C@H](C(C)C)N(C)C(=O)C2(CCCC2)NC(=O)[C@@H]2CCCN2C(=O)[C@H](CCc2ccc(C(F)(F)F)c(Cl)c2)NC(=O)CN(C)C(=O)[C@H](C2CCC2)N(C)C(=O)[C@@H]2CCN2C(=O)[C@H](C)N(C)C1=O [Compound 446] ([NMeL]I[NMeA][Aze][NMeGly(cBu)][Sar][hPhe(3-Cl-4-CF3)]P[Ac5c][NMeV][NMeD]-Piperidide; lactam N-11) | 100 to 500 nM
5 | CC[C@H](C)[C@@H]1NC(=O)[C@H](CC(C)C)N(C)C(=O)C[C@@H](C(=O)N2CCCC2)NC(=O)[C@H]([C@@H](C)CC)N(C)C(=O)C2(CCCC2)NC(=O)[C@@H]2CCCN2C(=O)[C@H](CCc2ccc(C(F)(F)F)c(Cl)c2)NC(=O)CN(C)C(=O)[C@H](CC2CCCCC2)N(C)C(=O)[C@@H]2CCN2C(=O)[C@H](C)N(C)C1=O [Compound 453] ([NMeL]I[NMeA][Aze][NMeCha][Sar][hPhe(3-Cl-4-CF3)]P[Ac5c][NMeI]D-Pyrrolidide; lactam N-11) | 50 to 100 nM
6 | CC[C@H](C)[C@@H]1NC(=O)[C@H](CC2CCC2)N(C)C(=O)C[C@@H](C)NC(=O)[C@H](C(C)C)N(C)C(=O)C2(CCCC2)NC(=O)[C@@H]2CCCN2C(=O)[C@H](CCc2ccc(C(F)(F)F)c(Cl)c2)NC(=O)CN(C)C(=O)[C@H](CC2CCCCC2)N(C)C(=O)[C@@H]2CCN2C(=O)[C@H](C)N(C)C1=O [Compound 455] (cyclo([Ac5c][NMeV][d(β3hA)][NMeCba]I[NMeA][Aze][NMeCha][Sar][hPhe(3-Cl-4-CF3)]P)) | 100 to 500 nM
7 | CC[C@H](C)[C@@H]1NC(=O)[C@H](CC(C)C)N(C)C(=O)C[C@@H](C(=O)N2C3CCC2COC3)N(C)C(=O)[C@H]([C@@H](C)CC)N(C)C(=O)C2(CCCC2)NC(=O)[C@@H]2CCCN2C(=O)[C@H](CCc2ccc(C(F)(F)F)c(Cl)c2)NC(=O)CN(C)C(=O)[C@H](CC2CCCCC2)N(C)C(=O)[C@@H]2CCN2C(=O)[C@H](C)N(C)C1=O [Compound 469] ([NMeL]I[NMeA][Aze][NMeCha][Sar][hPhe(3-Cl-4-CF3)]P[Ac5c][NMeI][NMeD]-{3Oxa8azabicyclo(3.2.1)octane}; lactam N-11) | 20 to 50 nM
8 | CC[C@H](C)[C@@H]1NC(=O)[C@H](CC(C)C)N(C)C(=O)C[C@@H](C(=O)N2CCCCC2)N(C)C(=O)[C@H](C(C)C)N(C)C(=O)C2(CCCC2)NC(=O)[C@@H]2CCCN2C(=O)[C@H](CCc2ccc(C(F)(F)F)c(Cl)c2)NC(=O)CN(C)C(=O)[C@H](COCCC(C)C)N(C)C(=O)[C@@H]2CCN2C(=O)[C@H](C)N(C)C1=O [Compound 470] ([NMeL]I[NMeA][Aze][NMeS](Isopentyl)[Sar][hPhe(3-Cl-4-CF3)]P[Ac5c][NMeV][NMeD]-Piperidide; lactam N-11) | 100 to 500 nM
9 | CC[C@H](C)[C@@H]1NC(=O)[C@H](CC(C)C)N(C)C(=O)C[C@@H](C(=O)N2CCCCC2)N(C)C(=O)[C@H](C(C)C)N(C)C(=O)C2(CCCC2)NC(=O)[C@@H]2CCCN2C(=O)[C@H](CCc2ccc(C(F)(F)F)c(Cl)c2)NC(=O)CN(C)C(=O)[C@H](CC2CCCCC2)N(C)C(=O)[C@@H]2CCN2C(=O)[C@H](C)N(C)C1=O [Compound 476] ([NMeL]I[NMeA][Aze][NMeCha][Sar][hPhe(3-Cl-4-CF3)]P[Ac5c][NMeV][NMeD]-Piperidide; lactam N-11) | 100 to 500 nM
10 | CCO[C@@H]1C[C@H]2C(=O)NC3(CCCC3)C(=O)N(C)[C@@H](C3CCCCC3)C(=O)N(C)[C@H](C)CC(=O)N(C)[C@@H](CC(C)C)C(=O)N[C@@H]([C@@H](C)CC)C(=O)N(C)[C@@H](C)C(=O)N3CC[C@H]3C(=O)N(C)[C@@H](Cc3ccc(C(F)(F)F)cc3)C(=O)N(C)CC(=O)N[C@@H](CCc3cc(F)c(C(F)(F)F)c(F)c3)C(=O)N2C1 [Compound 486] (cyclo([Ac5c][NMeChg][NMedβ3hAla][NMeL]I[NMeA][Aze][NMePhe(4-CF3)][Sar][hPhe(3,5-F2-4-CF3)][Hyp](Et))) | 50 to 100 nM
11 | CC[C@H](C)[C@@H]1NC(=O)[C@H](CC(C)C)N(C)C(=O)C[C@@H](C)NC(=O)[C@H](C(C)C)N(C)C(=O)C2(CCCC2)NC(=O)[C@@H]2CCCN2C(=O)[C@H](CCc2ccc(C(F)(F)F)c(Cl)c2)NC(=O)CN(C)C(=O)[C@H](CC2CCCCC2)N(C)C(=O)[C@@H]2CCN2C(=O)[C@H](C)N(C)C1=O [Compound 488] (cyclo([Ac5c][NMeV][d(β3hA)][NMeL]I[NMeA][Aze][NMeCha][Sar][hPhe(3-Cl-4-CF3)]P)) | 100 to 500 nM
12 | CC[C@H](C)[C@@H]1NC(=O)[C@H](CC(C)C)N(C)C(=O)C[C@@H](C(=O)N2CCCCC2)N(C)C(=O)[C@H](C(C)C)N(C)C(=O)C2(CCCC2)NC(=O)[C@@H]2CCCN2C(=O)[C@H](CCc2ccc(C(F)(F)F)c(Cl)c2)NC(=O)CN(C)C(=O)[C@H](CC2CCCCC2)N(C)C(=O)[C@@H]2CCN2C(=O)[C@H]([C@@H](C)O)N(C)C1=O [Compound 496] ([NMeL]I[NMeT][Aze][NMeCha][Sar][hPhe(3-Cl-4-CF3)]P[Ac5c][NMeV][NMeD]-Piperidide; lactam N-11) | 100 to 500 nM
13 | CO[C@H](C)[C@@H]1NC(=O)[C@H](CC(C)C)N(C)C(=O)C[C@@H](C(=O)N2CCCCC2)N(C)C(=O)[C@H](C(C)C)N(C)C(=O)C2(CCCC2)NC(=O)[C@@H]2CCCN2C(=O)[C@H](CCc2ccc(C(F)(F)F)c(Cl)c2)NC(=O)CN(C)C(=O)[C@H](CC2CCCCC2)N(C)C(=O)[C@@H]2CCN2C(=O)[C@H](C)N(C)C1=O [Compound 497] ([NMeL]T(Me)[NMeA][Aze][NMeCha][Sar][hPhe(3-Cl-4-CF3)]P[Ac5c][NMeV][NMeD]-Piperidide; lactam N-11) | 100 to 500 nM
14 | CC[C@H](C)[C@@H]1NC(=O)[C@H](CC(C)C)N(C)C(=O)C[C@@H](C(=O)N2CCCCC2)N(C)C(=O)[C@H](C2CCCCC2)N(C)C(=O)C2(CCCC2)NC(=O)[C@H](CCC(F)F)N(C)C(=O)[C@H](CCc2ccc(C(F)(F)F)c(Cl)c2)NC(=O)CN(C)C(=O)[C@H](CC2CCCCC2)N(C)C(=O)CN(C)C(=O)CN(C)C1=O [Compound 523] ([NMeL]I[Sar][Sar][NMeCha][Sar][hPhe(3-Cl-4-CF3)][NMeNva(5,5-F2)][Ac5c][NMeChg][NMeD]-Piperidide; lactam N-11) | 100 to 500 nM
15 | CC[C@H](C)[C@@H]1NC(=O)[C@H](CC(C)C)N(CC)C(=O)C[C@@H](C)NC(=O)[C@H](C2CCCC2)N(C)C(=O)C2(CCCC2)NC(=O)[C@@H]2CCCN2C(=O)[C@H](CCc2ccc(C(F)(F)F)c(Cl)c2)NC(=O)CN(C)C(=O)[C@H](Cc2ccc(C)cc2)N(C)C(=O)[C@@H]2CCN2C(=O)[C@H](C)N(C)C1=O [Compound 531] (cyclo([Ac5c][NMeGly(cPent)][d(β3hA)][NEtLeu]I[NMeA][Aze][NMePhe(4-Me)][Sar][hPhe(3-Cl-4-CF3)]P)) | 20 to 50 nM
16 | CC[C@H](C)[C@@H]1NC(=O)[C@H](CC(C)C)N(C)C(=O)C[C@@H](C(=O)N2CCCCC2)N(C)C(=O)[C@H](CC(C)C)N(C)C(=O)C2(CCCC2)NC(=O)[C@@H]2C[C@H](O)CN2C(=O)[C@H](CCc2ccc(C(F)(F)F)c(F)c2)NC(=O)CN(C)C(=O)[C@H](CC2CCCCC2)N(C)C(=O)CN(C)C(=O)CN(C)C1=O [Compound 544, (3S,9S,18S,21S,25S,28S,34S,36S)-9-(cyclohexylmethyl)-3-[2-[3-fluoro-4-(trifluoromethyl)phenyl]ethyl]-36-hydroxy-21,28-diisobutyl-7,10,13,16,22,26,29-heptamethyl-18-[(1S)-1-methylpropyl]-25-(piperidine-1-carbonyl)spiro[1,4,7,10,13,16,19,22,26,29,32-undecazabicyclo[32.3.0]heptatriacontane-31,1′-cyclopentane]-2,5,8,11,14,17,20,23,27,30,33-undecone] ([NMeL]I[Sar][Sar][NMeCha][Sar][hPhe(3-F,4-CF3)][cisHyp][Ac5c][NMeL][NMeD]-Piperidide; lactam N-11) | 100 to 500 nM
17 | CC[C@H](C)[C@@H]1NC(=O)[C@H](CC(C)C)N(C)C(=O)C[C@@H](C(=O)N2CCCCC2)N(C)C(=O)[C@H](C2CCCCC2)N(C)C(=O)C2(CCCC2)NC(=O)[C@@H]2CCCN2C(=O)[C@H](CCc2ccc(C(F)(F)F)c(Cl)c2)NC(=O)CN(C)C(=O)[C@H](CC2CCCCC2)N(C)C(=O)CN(C)C(=O)CN(C)C1=O [Compound 558] ([NMeL]I[Sar][Sar][NMeCha][Sar][hPhe(3-Cl-4-CF3)]P[Ac5c][NMeChg][NMeD]-Piperidide; lactam N-11) | 20 to 50 nM
